# Measured values: article PMC6753678, “Fueling Open Innovation for Malaria Transmission-Blocking Drugs: Hundreds of Molecules Targeting Early Parasite Mosquito Stages” (Frontiers in Microbiology, 2019)
# Where two headings read alike, the source gives them in different places.
# Columns and labels:
# [1] = system: P. falciparum female gametocytes; experiment: P. falciparum female gametogenesis assay (Pf FGAA); conditions: 1: YES; 0: NO
# [2] = system: P. falciparum female gametocytes; parameters: method as in Miguel-Blanco et al 2017; conditions: ref Miguel-Blanco et al 2017, read-out: Pf FGAA IC50, cited from earlier work
# [3] = system: P. berghei ookinete development; conditions: for % inhibition, Replicate A / % inhibition, Replicate B: primary screen at 1 μM
# HepG2 cells [4] = experiment: HepG2 cytotoxicity assay
# Method in brief: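 Here viability after a 48 h compound incubation (37°C, humidified 5% CO2) is measured by fluorescence and expressed as percent inhibition, with doxorubicin at 50 μM and DMSO as the bounding controls.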
# HepG2 cells [5] = conditions: cited from earlier work
# [6] = system: P. falciparum late stage (stages IV-V) gametocytes; parameters: method as in Almela et al 2016; conditions: ref Almela et al 2016, read-out: Pf GCT ATP IC50, cited from earlier work
# [7] = system: 3D7-strain P. falciparum asexual parasites; experiment: P. falciparum asexual growth inhibition assay (Pf GIA); assay type: cell-based, Plasmodium falciparum; conditions: dose response confirmation; read-out: Pf asexual growth inhibition assays IC50
# Method in brief: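 0.25% parasitemia, 2% Hct, RPMI/HEPES/hypoxanthine/5% Albumax; compound dose response, 72 h, 37°C, 5% CO2, 5% O2, 90% N2. Freeze-thaw, then LDH assay, A650. % inhibition vs chloroquine (50 μM)/DMSO, mean of 3 independent runs.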
# [8] = system: P. falciparum late stage (stages IV-V) gametocytes; experiment: P. falciparum late stage gametocyte ATP depletion assay (Pf GC-ATP); conditions: 1: YES; 0: NO
# [9] = HepG2 cytotoxicity unified across the three screens
# [10] = value reported with the Pf FGAA screen, ref Miguel-Blanco et al 2017
# [11] = value reported with the Pf GCT ATP screen, ref Almela et al 2016
Structure (SMILES),Is compound selective in assay? Pf FGAA active? [1],IC50 [2],"Is compound selective in assay? Pb ODA active? ([3]; 1: YES, 0: NO)","% inhibition, Replicate A [3]","% inhibition, Replicate B [3]","IC50 ([3]; read-out: Pb ODA IC50, this manuscript)","IC50 ([3]; read-out: Pb Ookinete development assay IC50, dose response confirmation)","HepG2 cytoxicity (Pb ODA, this manuscript) (HepG2 cells [4]; HepG2, this manuscript)",Unified cytotox (HepG2 cells [4]; HepG2 values of the three screens unified),"IC50 (HepG2 cells [4]; read-out: HepG2 cytotoxicity assay IC50, dose response confirmation)","HepG2 cytoxicity (Pf GCT ATP screen) (HepG2 cells [5]; HepG2, ref Almela et al 2016)","HepG2 cytoxicity (Pf FGAA screen) (HepG2 cells [5]; HepG2, ref Miguel-Blanco et al 2017)",IC50 [6],IC50 [7],Is compound selective in assay? Pf GC-ATP active? [8],IC50 ([2]; TCAMS screen comparison),Unified cytotox (HepG2 cells [4]; [9]),HepG2 cytoxicity (HepG2 cells [5]; [10]),HepG2 cytoxicity (HepG2 cells [5]; [11]),IC50 ([6]; TCAMS screen comparison)
Cl.c1ccc2c(NCCCCCCCCCNc3c4ccccc4nc4ccccc34)c3ccccc3nc2c1 [TCMDC-124286],0 (0: NO),1800 nM,0 (0: NO),34.80%,55.23%,2030 nM,2030 nM,5.50 µM,5.50 µM,5.5 µM,6.1 µM,4.90 µM,1500 nM,349 nM,0 (0: NO),,,,,
Nc1nc(N)c2c(ccc3c2ccn3Cc2ccc(-c3ccccc3)cc2)n1 [TCMDC-137813],0 (0: NO),,,53.67%,5.32%,,,,,,,,,,0 (0: NO),2010 nM,1.38 µM,1.16 µM,1.6 µM,1450 nM
CC1(C)CC(NCCCCCCCOc2ccc(OCc3ccccc3)cc2)CC(C)(C)N1.Cl [TCMDC-138958],0 (0: NO),,,59.61%,10.57%,,,,,,,,,,0 (0: NO),1230 nM,2.88 µM,2.75 µM,3 µM,680 nM
CCOc1ccccc1CCNC(C)Cc1ccc(C(=O)Nc2ccc(CC(C)NCCc3cccc(Cl)c3)cc2)cc1 (stereo not shown) [TCMDC-139805],0 (0: NO),,,,,,,,,,,,,,0 (0: NO),1390 nM,3.37 µM,3.24 µM,3.5 µM,610 nM
CCCCCCCN1CC[C@@H](CCCc2ccnc3ccc(OCCN4CCNCC4)cc23)[C@@H](CC)C1.Cl [TCMDC-139817],0 (0: NO),,,,,,,,,,,,,,1 (1: YES),1860 nM,5.82 µM,4.90 µM,6.75 µM,570 nM
Cc1oc(-c2ccc(Cl)cc2)cc1C(=O)NCCC1CCN(CCCCCNC(=O)/C=C/c2ccc(Cl)c(Cl)c2)CC1 [TCMDC-140009],0 (0: NO),,,,,,,,,,,,,,0 (0: NO),1830 nM,3.71 µM,3.31 µM,4.1 µM,5430 nM
CC(Cc1ccc(OCCCCOc2ccccc2)cc1)NCCC1CCCN1C (stereo not shown) [TCMDC-140017],0 (0: NO),,,,,,,,,,,,,,1 (1: YES),200 nM,1.12 µM,1.12 µM,<1.56 µM,95 nM
CN(CCCCN)Cc1ccc(-c2ccc(Cl)cc2)cc1 [TCMDC-140123],0 (0: NO),,,,,,,,,,,,,,0 (0: NO),1580 nM,3.77 µM,3.55 µM,3.99 µM,410 nM
CN1CCN(CCCN(Cc2cccc(-c3ccc(CNC4CCCC4)cc3)c2)C(=O)/C=C/c2ccccc2)CC1.O=C(O)C(F)(F)F [TCMDC-140544],0 (0: NO),,,,,,,,,,,,,,0 (0: NO),1360 nM,7.04 µM,7.70 µM,6.39 µM,740 nM
CN1CCN(CCCN(Cc2cccc(-c3ccc(CNCCc4ccccc4)cc3)c2)C(=O)c2cccs2)CC1.O=C(O)C(F)(F)F [TCMDC-140568],0 (0: NO),,,,,,,,,,,,,,0 (0: NO),1710 nM,5.79 µM,5.98 µM,5.6 µM,890 nM
CN1CCN(CCCNCc2cccc(-c3ccc(CNCCc4ccccc4)cc3)c2)CC1 [TCMDC-140643],0 (0: NO),,,,,,,,,,,,,,1 (1: YES),1910 nM,13.08 µM,7.92 µM,18.24 µM,410 nM
COc1cc(NCCCNCc2cn(Cc3cc(Br)cc(Br)c3)c3ccccc23)nc2ccccc12 [TCMDC-140677],0 (0: NO),,,,,,,,,,,,,,0 (0: NO),860 nM,5.03 µM,3.94 µM,6.13 µM,590 nM
CN(C)CCCOc1ccc(CN2CCC(c3c[nH]c4ccc(NCC5CCCCC5)cc34)CC2)cc1.O=C(O)C(F)(F)F [TCMDC-140737],1 (1: YES),,,,,,,,,,,,,,1 (1: YES),560 nM,6.14 µM,5.48 µM,6.8 µM,500 nM
CCN(CC)CCN(Cc1ccc(-c2ccc(C(F)(F)F)cc2)cc1)C(=O)Cn1cc(Cc2cnn(C)c2)c(=O)nc1/C=C/c1cccc(F)c1F [TCMDC-140964],1 (1: YES),,,,,,,,,,,,,,1 (1: YES),870 nM,12.05 µM,9.69 µM,14.4 µM,170 nM
Cc1c(Cn2ncc(N3CCC(N)CC3)c(Cl)c2=O)cccc1NC(=O)Nc1ccc(-c2ccccc2)cc1.O=C(O)C(F)(F)F [TCMDC-141931],1 (1: YES),,,,,,,,,,,,,,1 (1: YES),1090 nM,18.70 µM,22.90 µM,14.5 µM,1180 nM
Cl.Nc1c(I)cc(C(=O)Nc2ccc3nc4c(c(N)c3c2)CCCC4)cc1I [TCMDC-142289],0 (0: NO),,,,,,,,,,,,,,1 (1: YES),780 nM,6.27 µM,4.52 µM,8.03 µM,410 nM
